From patent US10064848B2, “Pyridic ketone derivatives, method of preparing same, and pharmaceutical application thereof” (Shanghai Hengrui Pharmaceutical Co., Ltd., priority 2013, dated 2018)

Columns and labels:
CYP3A4t = target: T1, CYP3A4t (Homo sapiens, UniProt P08684); assay: In vitro CYP enzyme inhibition, human liver microsomes; assay type: in vitro ADME; details: probe Testosterone, single point method
T1 construct: from tissue; host or cells: human liver microsomes
Procedure: (§1) Human liver microsome incubation system was used to reflect the activity of enzymes based on the amount of metabolites produced. Enzyme inhibition of the test compounds was investigated on CYP1A2, CYP2C9, […], CYP3A4m, CYP3A4t and CYP2C19, and IC50 values (a concentration of the test compound that is required for 50% inhibition of enzyme activity) were measured. […] The appropriate amount of test compound standard sample was weighed, and diluted with DMSO to 50 mM to obtain stock solution I. The stock solution I was diluted with PBS to 100 μM to obtain the reaction liquid which is to be used in incubation. [table] The reaction mixture was prepared: 60 μL [table] The above mixture was preincubated for 5 minutes at 37° C., followed by addition of 40 μL of NADPH (2.5 mM, PBS formulation). The mixture solution was incubated for 20 minutes at 37° C. All incubated samples were set to double samples. 300 μL ice-cold acetonitrile was added to terminate the reaction. The reaction solution was added with 100 μl internal standard, mixed uniformly, and centrifuged for 10 minutes at 3500 rpm. The supernatant was transferred to the LC-MS/MS analysis. The activity of enzymes was reflected by the production amount of metabolites. Using a single point method, the formula was calculated as follows: According to the known literature: IC50>10 μM belongs to weaker inhibition, 1 μM<IC50<10 μM belong to moderate inhibition, IC50<1 μM belong to strong inhibition.

CYP3A4m = target: T2, CYP3A4m (Homo sapiens, UniProt P08684); assay: as above; assay type: in vitro ADME; details: probe Midazolam, single point method
T2 construct: from tissue; host or cells: human liver microsomes
T2 sequence (P08684 whole entry): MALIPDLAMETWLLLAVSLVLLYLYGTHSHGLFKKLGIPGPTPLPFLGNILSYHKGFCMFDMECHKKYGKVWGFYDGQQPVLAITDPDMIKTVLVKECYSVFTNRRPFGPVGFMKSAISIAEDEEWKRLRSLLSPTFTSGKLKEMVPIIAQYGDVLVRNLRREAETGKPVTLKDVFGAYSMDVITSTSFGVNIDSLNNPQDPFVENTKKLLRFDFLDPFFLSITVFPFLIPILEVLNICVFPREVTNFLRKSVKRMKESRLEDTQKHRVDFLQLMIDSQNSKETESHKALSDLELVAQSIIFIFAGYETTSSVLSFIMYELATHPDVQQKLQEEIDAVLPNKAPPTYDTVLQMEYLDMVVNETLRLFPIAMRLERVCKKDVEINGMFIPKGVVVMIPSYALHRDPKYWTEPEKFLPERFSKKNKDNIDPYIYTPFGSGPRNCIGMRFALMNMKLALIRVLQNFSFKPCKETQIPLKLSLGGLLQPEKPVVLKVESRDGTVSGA
Procedure: as §1

CYP2C6 = CYP2C6 (Homo sapiens, UniProt P10635); assay: as above; assay type: in vitro ADME; details: single point method
CYP2C6, sequence (P10635 whole entry): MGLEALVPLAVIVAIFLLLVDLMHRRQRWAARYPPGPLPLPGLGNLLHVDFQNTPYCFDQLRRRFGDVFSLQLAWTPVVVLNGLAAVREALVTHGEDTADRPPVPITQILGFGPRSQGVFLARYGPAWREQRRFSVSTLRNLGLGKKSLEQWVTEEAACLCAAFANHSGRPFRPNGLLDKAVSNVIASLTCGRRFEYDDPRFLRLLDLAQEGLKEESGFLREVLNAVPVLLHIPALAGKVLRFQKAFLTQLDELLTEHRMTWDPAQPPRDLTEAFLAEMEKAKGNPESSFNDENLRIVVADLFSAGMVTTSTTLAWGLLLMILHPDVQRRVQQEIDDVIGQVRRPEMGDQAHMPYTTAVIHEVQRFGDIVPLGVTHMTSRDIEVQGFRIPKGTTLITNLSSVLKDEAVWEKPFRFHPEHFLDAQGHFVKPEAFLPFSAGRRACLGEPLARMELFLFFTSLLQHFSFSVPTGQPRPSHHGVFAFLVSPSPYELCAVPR
Procedure: as §1

[1] = Pharmacokinetics assay in SD rats, intragastric administration; assay type: in vivo, Sprague-Dawley (SD) rats; details: 10 mg/kg; for AUC / CL/F / half-life / MRT / Cmax: both sexes, Sprague-Dawley, rat, plasma, po; for AUC: read-out: Area Under Curve AUC; for CL/F: read-out: Clearance CL/F; for half-life: read-out: Half-Life T½ (converted); for MRT: read-out: Mean Residence Time MRT; for Cmax: read-out: Plasma Conc. Cmax
Procedure: Sprague-Dawley (SD) rats were used as test animals. The compounds of Example 1, Example 22, Example 29 and Example 31 were administered intragastrically to rats to determine the drug concentration in plasma at different time points by a LC/MS/MS method. The pharmacokinetic behavior of the compounds of the present invention was studied and evaluated in rats.
16 Healthy adult SD rats, half male and half female, purchased from SINO-BRITSH SIPPR/BK LAB. ANIMAL LTD., CO, Certificate No.: SCXK (Shanghai) 2008-0016, were divided into four groups, with 4 rats in each group.
The appropriate amounts of test compounds were weighed and mixed with 40 μL of tween 80 and 0.5% CMC-Na to prepare a 1 mg/mL suspension by an ultrasonic method.
After an overnight fast, 16 SD rats, half male and half female, were divided into 4 groups, with 4 rats in each group, and administered the test compounds intragastrically at a dose of 10 mg/kg, and an administration volume of 10 mL/kg.
Blood samples (0.1 mL) were taken from the orbital sinus before administration, and at 0.5 h, 1 h, 2 h, 4 h, 6 h, 8 h, 11 h, 24 h and 48 h after administration, stored in heparinized tubes, and centrifuged for 10 minutes at 3,500 rpm to separate blood plasma. The plasma samples were stored at −20° C. The rats were fed 2 hours after administration.
The concentration of the test compounds in rat plasma after intragastrically administering the test compounds was analyzed by a LC-MS/MS method. The linearity range of the method is 1.00-2000 ng/ml, and the lower limit of quantification is 1.00 ng/ml. Plasma samples were analyzed after protein precipitation.

[2] = target: T3, MAP2K2 (MEK2) Recombinant Human Protein (Homo sapiens, UniProt P36507); assay: MEK2 kinase inhibition assay (Z'-LYTE, MEK2/ERK2 coupled); assay type: biochemical; details: recombinant human MEK2 with ERK2, Z'-LYTE, 1.5 hours at 25° C; read-out: IC50 for inhibiting MEK kinase (MEK2)
T3 construct: purchased Invitrogen PV3615 (MEK2); PV3314 (ERK2)
T3 sequence (P36507 whole entry): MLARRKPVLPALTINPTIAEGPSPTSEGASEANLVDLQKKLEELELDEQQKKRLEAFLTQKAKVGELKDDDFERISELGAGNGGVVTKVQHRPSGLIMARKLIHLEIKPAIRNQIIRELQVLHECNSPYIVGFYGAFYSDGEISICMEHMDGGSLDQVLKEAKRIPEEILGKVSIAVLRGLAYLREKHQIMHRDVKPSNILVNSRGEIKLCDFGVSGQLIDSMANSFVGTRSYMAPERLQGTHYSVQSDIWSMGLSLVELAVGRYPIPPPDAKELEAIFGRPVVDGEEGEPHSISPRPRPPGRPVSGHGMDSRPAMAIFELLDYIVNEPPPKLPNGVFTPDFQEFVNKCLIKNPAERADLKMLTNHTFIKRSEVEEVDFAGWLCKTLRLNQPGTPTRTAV
Procedure: MEK2 kinase activity was tested in vitro by the following method.
MEK kinase used in the assay:
MAP2K2 (MEK2) Recombinant Human Protein (Invitrogen, Catalog No. PV3615)
MAPK1 (ERK2) Recombinant Human Protein (Invitrogen, Catalog No. PV3314)
Kit used in the assay: Z′-LYTE™ Kinase Assay Kit-Ser/Thr 03 Peptide (Invitrogen, Catalog No. PV3176).
The following in vitro assay was used to determine the activity of the compounds of the present invention for inhibiting the […] MEK kinase. The test compound was dissolved in dimethyl sulfoxide to the desired concentration. 1× Buffer A (Invitrogen, Catalog No. PV3189) was prepared, ATP was diluted with 1× Buffer A to obtain 400 μM ATP solution, appropriate amounts of Z′-LYTE™ Ser/Thr 03 Peptide (Invitrogen, Catalog No. PV3200), MEK kinase (MEK 2) enzymes, (ERK2) enzymes and 1× Buffer A were mixed, and appropriate amounts of Z′-LYTE™ Ser/Thr 03 phosphoPeptide substrate (Invitrogen, Catalog No. PV3215) and 1× Buffer A were formulated into a mixture to be tested. The 4% DMSO solution of the test compound was prepared from 1× buffer and DMSO solution of the test compound. 2.5 μL DMSO solution of the test compound was added to a reaction well, and then 2.5 μL of 400 μM ATP solution, 5 μL of enzyme and substrate mixture were added to become a 10 μL reaction system. The reaction system was incubated for 1.5 hours at 25° C., and a mixture was prepared according to Reagent A:Buffer B=1:1024. 5 μL of a mixture of Reagent A (Invitrogen, Catalog No. PV3295) and Buffer B (Invitrogen, Item No. P3127) was added to a reaction well, the reaction system was incubated for 60 minutes at 25° C., and then the fluorescence was read by a NovoStar ELISA with excitation wavelength: 400 nm, and emission wavelength: 445 nm and 520 nm.
The above assay was used to determine the biochemical activity of the compounds of the present invention for inhibiting MEK kinase (MEK2).

T1 sequence (P08684 whole entry): as the sequence (P08684 whole entry) above

SMILES	IC50 (CYP3A4t) [µM]	IC50 (CYP3A4m) [µM]	IC50 (CYP2C6) [µM]	Apparent Distribution Volume Vd [1] [L/kg]	AUC [1] [ng·h/mL]	CL/F [1] [mL/min/kg]	half-life [1] [h]	MRT [1] [h]	Cmax [1] [ng/mL]	IC50 [2] [µM]
Cc1ncccc1Oc1cc(=O)n(C)c(Nc2ccc(I)cc2F)c1C(N)=O [Example 29, 2-((2-fluoro-4-iodophenyl)amino)-1-methyl-4-((2-methylpyridin-3-yl)oxy)-6-oxo-1,6-dihydropyridine-3-carboxamide]	> 10	> 10	> 10	11.319 ± 6.87	6120 ± 3030	32.9 ± 15.5	3.79 ± 0.76	3.79 ± 0.5	1440 ± 396	0.217
Cc1c(F)cccc1Oc1cc(=O)n(C)c(Nc2ccc(I)cc2F)c1C(N)=O [Example 1, 4-(3-fluoro-2-methylphenoxy)-2-((2-fluoro-4-iodophenyl)amino)-1-methyl-6-oxo-1,6-dihydropyridine-3-carboxamide]	> 10	> 10	> 10	163.863 ± 87.909	642 ± 187	280 ± 94.6	6.61 ± 1.66	10.5 ± 2.41	56.3 ± 15.6	0.108
Cc1ccc(Oc2cc(=O)n(C)c(Nc3ccc(I)cc3F)c2C(N)=O)cn1 [Example 31, 2-((2-fluoro-4-iodophenyl)amino)-1-methyl-4-((6-methylpyridin-3-yl)oxy)-6-oxo-1,6-dihydropyridine-3-carboxamide]	> 10	> 10	> 10	4.483 ± 3.051	18100 ± 9970	11.6 ± 5.9	4.12 ± 0.96	4.43 ± 0.96	3370 ± 756	0.351
CCS(=O)(=O)Nc1cccc(Oc2cc(=O)n(C)c(Nc3ccc(I)cc3F)c2C(N)=O)c1C [Example 3, 4-(3-(ethylsulfonamido)-2-methylphenoxy)-2-((2-fluoro-4-iodophenyl)amino)-1-methyl-6-oxo-1,6-dihydropyridine-3-carboxamide]	> 50	> 50	> 50							0.0198
Cc1cc(F)ccc1Oc1cc(=O)n(C)c(Nc2ccc(I)cc2F)c1C(N)=O [Example 22, 4-(4-fluoro-2-methylphenoxy)-2-((2-fluoro-4-iodophenyl)amino)-1-methyl-6-oxo-1,6-dihydropyridine-3-carboxamide]	> 10	> 10	> 10	98.789 ± 42.165	1110 ± 746	224 ± 151	7.18 ± 4.64	11.3 ± 6.7	108 ± 38	0.121
